Data: patent US20260317324A1, “BIFUNCTIONAL COMPOUNDS FOR DEGRADING BRAF VIA UBIQUITIN PROTEOSOME PATHWAY” (Nurix Therapeutics, Inc., priority 2023, published 2026)

Key:
Type in all cases: cell-based
BRAF G466V = target: T1, BRAF G466V (Homo sapiens, UniProt P15056, G466V); test: BRAF HiBiT degradation assay, C-terminal HiBiT-tagged BRAF G466V overexpressed in HCT-116 BRAF−/− cells (clone 8), Nano-Glo HiBiT Lytic assay
T1 construct: Horizon Discovery (HCT-116 BRAF−/− cells); host or cells: HCT-116 BRAF−/− cells, clone 8, lentiviral transduction
T1 sequence (P15056 whole entry G466V): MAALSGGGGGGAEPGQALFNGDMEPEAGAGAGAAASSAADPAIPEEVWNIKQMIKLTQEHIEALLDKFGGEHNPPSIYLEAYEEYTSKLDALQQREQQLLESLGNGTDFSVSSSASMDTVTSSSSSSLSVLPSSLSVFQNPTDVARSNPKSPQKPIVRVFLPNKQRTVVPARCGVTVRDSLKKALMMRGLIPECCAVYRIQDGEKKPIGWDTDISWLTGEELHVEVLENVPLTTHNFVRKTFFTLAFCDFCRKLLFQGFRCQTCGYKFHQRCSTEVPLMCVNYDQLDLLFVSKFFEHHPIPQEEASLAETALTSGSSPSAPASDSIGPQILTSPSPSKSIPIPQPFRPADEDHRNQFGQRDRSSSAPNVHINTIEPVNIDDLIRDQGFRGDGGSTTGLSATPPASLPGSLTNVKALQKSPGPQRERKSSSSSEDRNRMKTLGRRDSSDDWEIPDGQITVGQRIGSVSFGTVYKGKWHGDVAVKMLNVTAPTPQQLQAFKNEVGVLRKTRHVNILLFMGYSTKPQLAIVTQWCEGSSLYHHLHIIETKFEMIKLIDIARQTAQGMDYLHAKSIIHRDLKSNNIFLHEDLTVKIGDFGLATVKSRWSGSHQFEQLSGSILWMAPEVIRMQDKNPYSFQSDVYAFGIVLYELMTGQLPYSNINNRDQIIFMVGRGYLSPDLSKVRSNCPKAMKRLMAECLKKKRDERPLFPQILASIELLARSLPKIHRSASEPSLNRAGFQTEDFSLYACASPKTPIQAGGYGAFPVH
Summary of the method: (§1)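 HCT-116 BRAF−/− cells stably expressing the tagged mutant were seeded at 3,000 cells/well and grown 24 h at 37 °C before an 11-point half-log series from 1 μM to 0.01 nM, run in duplicate at 0.2% DMSO. Lytic HiBiT luminescence gave % protein remaining versus DMSO controls; DC50 was the fitted concentration at 50%.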

BRAF G469A = target: T2, BRAF G469A (Homo sapiens, UniProt P15056, G469A); test: BRAF HiBiT degradation assay, C-terminal HiBiT-tagged BRAF G469A overexpressed in HCT-116 BRAF−/− cells (clone 34), Nano-Glo HiBiT Lytic assay
T2 construct: Horizon Discovery (HCT-116 BRAF−/− cells); host or cells: HCT-116 BRAF−/− cells, clone 34, lentiviral transduction
T2 sequence (P15056 whole entry G469A): as the sequence (P15056 whole entry G466V) above, with V466G, G469A counted along it
Summary of the method: as §1

BRAF D594G = target: T3, BRAF D594G (Homo sapiens, UniProt P15056, D594G); test: BRAF HiBiT degradation assay, C-terminal HiBiT-tagged BRAF D594G overexpressed in HCT-116 BRAF−/− cells (clone 63), Nano-Glo HiBiT Lytic assay
T3 construct: Horizon Discovery (HCT-116 BRAF−/− cells); host or cells: HCT-116 BRAF−/− cells, clone 63, lentiviral transduction
T3 sequence (P15056 whole entry D594G): as the sequence (P15056 whole entry G466V) above, with V466G, D594G counted along it
Summary of the method: as §1

BRAF V600E = target: T4, BRAF V600E (Homo sapiens, UniProt P15056, V600E); test: BRAF HiBiT degradation assay, C-terminal HiBiT-tagged BRAF V600E A375 cells (clone 1F10), Nano-Glo HiBiT Lytic assay; conditions: for Dmax: A-375
T4 construct: endogenous C-terminal HiBiT fusion tag on BRAF V600E allele; endogenous in cells; host or cells: A375 clone 1F10 (CRISPR-Cas9 knock-in of the HiBiT tag; parental A375 from ATCC)
T4 sequence (P15056 whole entry V600E, the tested form may be a part): as the sequence (P15056 whole entry G466V) above, with V466G, V600E counted along it
Summary of the method: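 A375 cells with CRISPR knock-in C-terminal HiBiT on endogenous BRAF V600E (clone 1F10) were seeded and cultured 24 h at 37 °C, then dosed with an 11-point half-log series (1 μM to 0.01 nM, duplicate, 0.2% DMSO). Lytic HiBiT luminescence gave % protein remaining; DC50 was the fitted concentration at 50%.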

[1] = BRAF G466V (Class 3), HCT-116 BRAF−/− cells, DC50 at 50% degradation
[2] = BRAF G466V (Class 3), HCT-116 BRAF−/− cells, observed Dmax relative to DMSO control
[3] = BRAF G469A (Class 2), HCT-116 BRAF−/− cells, DC50 at 50% degradation
[4] = BRAF G469A (Class 2), HCT-116 BRAF−/− cells, observed Dmax relative to DMSO control
[5] = BRAF D594G (Class 3), HCT-116 BRAF−/− cells, DC50 at 50% degradation
[6] = BRAF D594G (Class 3), HCT-116 BRAF−/− cells, observed Dmax relative to DMSO control
[7] = A375 (BRAF V600E, Class 1), DC50 at 50% degradation
[8] = A375 (BRAF V600E, Class 1), observed Dmax, % protein degraded relative to DMSO control

Structure (SMILES)	DC50 (BRAF G466V; [1]) [nM]	Dmax (BRAF G466V; [2]) [%]	DC50 (BRAF G469A; [3]) [nM]	Dmax (BRAF G469A; [4]) [%]	DC50 (BRAF D594G; [5]) [nM]	Dmax (BRAF D594G; [6]) [%]	DC50 (BRAF V600E; [7]) [nM]	Dmax (BRAF V600E; [8]) [%]	DC50 (BRAF G466V; BRAF G466V, DC50 at 50%: fitted conc. at Y=50) [nM]	Dmax (BRAF G466V; HCT-116, BRAF G466V, percentage protein degraded at maximal compound effect relative to DMSO) [%]	DC50 (BRAF G469A; Class 2, BRAF G469A, DC50 at 50%: fitted conc. at Y=50) [nM]	Dmax (BRAF G469A; HCT-116, Class 2, BRAF G469A, percentage protein degraded at maximal compound effect relative to DMSO) [%]	DC50 (BRAF D594G; BRAF D594G, DC50 at 50%: fitted conc. at Y=50) [nM]	Dmax (BRAF D594G; HCT-116, BRAF D594G, percentage protein degraded at maximal compound effect relative to DMSO) [%]	DC50 (BRAF V600E; A375 (BRAF V600E), DC50 at 50%: fitted conc. at Y=50) [nM]	Dmax (BRAF V600E; A375 (BRAF V600E), percentage protein degraded at maximal compound effect relative to DMSO) [%]
CCCS(=O)(=O)Nc1cccc(-c2cn(-c3ccc(C4CCN(CC5CCN(c6ccc(C7CCC(=O)NC7=O)cc6)CC5)CC4)cc3)nc2-c2ccncc2)c1F (racemic) [Compound 25, Rac-N-{3-[1-(4-{1-[(1-{4-[(3R)-2,6-dioxopiperidin-3-yl]phenyl}piperidin-4-yl)methyl]piperidin-4-yl}phenyl)-3-(pyridin-4-yl)-1H-pyrazol-4-yl]-2-fluorophenyl}propane-1-sulfonamide]									10 to 50	30 to 70	> 500	< 30	> 500	30 to 70	10 to 50	> 70
O=C1CCC(c2ccc(N3CCC(CN4CCN(c5ccc(-n6cc(-c7cc(Cl)cc(NS(=O)(=O)N8CCCC8)c7F)c(-c7ccncc7)n6)cc5)CC4)CC3)c(F)c2)C(=O)N1 (racemic) [Compound 347, Rac-N-{5-chloro-3-[1-(4-{4-[(1-{4-[(3R)-2,6-dioxopiperidin-3-yl]-2-fluorophenyl}piperidin-4-yl)methyl]piperazin-1-yl}phenyl)-3-(pyridin-4-yl)-1H-pyrazol-4-yl]-2-fluorophenyl}pyrrolidine-1-sulfonamide]	< 10	> 70	10 to 50	30 to 70	< 10	> 70	< 10	> 70								
O=C1CC[C@H](c2ccc(N3CCC(CN4CCN(c5ccc(-n6cc(-c7cc(Cl)cc(NS(=O)(=O)N8CCCC8)c7F)c(-c7ccncc7)n6)nc5)CC4)CC3)cc2)C(=O)N1 [Compound 286, N-{5-chloro-3-[1-(5-{4-[(1-{4-[(3R)-2,6-dioxopiperidin-3-yl]phenyl}piperidin-4-yl)methyl]piperazin-1-yl}pyridin-2-yl)-3-(pyridin-4-yl)-1H-pyrazol-4-yl]-2-fluorophenyl}pyrrolidine-1-sulfonamide]	< 10	> 70	10 to 50	30 to 70	< 10	> 70	< 10	> 70								

Now from value to compound:

DC50 (BRAF G466V; [1]) [nM]	Dmax (BRAF G466V; [2]) [%]	DC50 (BRAF G469A; [3]) [nM]	Dmax (BRAF G469A; [4]) [%]	DC50 (BRAF D594G; [5]) [nM]	Dmax (BRAF D594G; [6]) [%]	DC50 (BRAF V600E; [7]) [nM]	Dmax (BRAF V600E; [8]) [%]	DC50 (BRAF G466V; BRAF G466V, DC50 at 50%: fitted conc. at Y=50) [nM]	Dmax (BRAF G466V; HCT-116, BRAF G466V, percentage protein degraded at maximal compound effect relative to DMSO) [%]	DC50 (BRAF G469A; Class 2, BRAF G469A, DC50 at 50%: fitted conc. at Y=50) [nM]	Dmax (BRAF G469A; HCT-116, Class 2, BRAF G469A, percentage protein degraded at maximal compound effect relative to DMSO) [%]	DC50 (BRAF D594G; BRAF D594G, DC50 at 50%: fitted conc. at Y=50) [nM]	Dmax (BRAF D594G; HCT-116, BRAF D594G, percentage protein degraded at maximal compound effect relative to DMSO) [%]	DC50 (BRAF V600E; A375 (BRAF V600E), DC50 at 50%: fitted conc. at Y=50) [nM]	Dmax (BRAF V600E; A375 (BRAF V600E), percentage protein degraded at maximal compound effect relative to DMSO) [%]	Structure (SMILES)
< 10	> 70	10 to 50	30 to 70	< 10	30 to 70	< 10	> 70									O=C1CCN(c2ccc(N3CCC(CN4CCN(c5ccc(-n6cc(-c7cc(Cl)cc(NS(=O)(=O)N8CCCC8)c7F)c(-c7ccncc7)n6)cc5)CC4)CC3)nc2)C(=O)N1 [Compound 355, N-[5-chloro-3-(1-{4-[4-({1-[5-(2,4-dioxo-1,3-diazinan-1-yl)pyridin-2-yl]piperidin-4-yl}methyl)piperazin-1-yl]phenyl}-3-(pyridin-4-yl)-1H-pyrazol-4-yl)-2-fluorophenyl]pyrrolidine-1-sulfonamide]
< 10	> 70	10 to 50	30 to 70	< 10	30 to 70	< 10	> 70									O=C1CCC(c2ccc(N3CCC(CN4CCN(c5ccc(-n6cc(-c7cc(Cl)cc(NS(=O)(=O)N8CC(F)C8)c7F)c(-c7ccncc7)n6)c(F)c5)CC4)CC3)nc2)C(=O)N1 (racemic) [Compound 337, Rac-N-{5-chloro-3-[1-(4-{4-[(1-{5-[(3R)-2,6-dioxopiperidin-3-yl]pyridin-2-yl}piperidin-4-yl)methyl]piperazin-1-yl}-2-fluorophenyl)-3-(pyridin-4-yl)-1H-pyrazol-4-yl]-2-fluorophenyl}-3-fluoroazetidine-1-sulfonamide]
